# Assay results reported in paper PMC11839852, “Preclinical comparison of (radio)lanthanides using mass spectrometry and nuclear imaging techniques: biodistribution of lanthanide-based tumor-targeting agents and lanthanides in ionic form” (European Journal of Nuclear Medicine and Molecular Imaging, 2024).
# Marks after values point to notes of the source that are not given here.
# Tested on: non-tumor-bearing immunocompetent FVB mice
# Assay: Biodistribution of lanthanide chloride salts LnCl3 (multiplexed ICP-MS)
# Assay type: in vivo
# Conditions: for Tissue uptake: Blood / Tissue uptake: Bone / Tissue uptake: Brain / Tissue uptake: Heart / Tissue uptake: Intestines / Tissue uptake: Kidneys / Tissue uptake: Liver / Tissue uptake: Lung / Tissue uptake: Muscle / Tissue uptake: Pancreas / Tissue uptake: Salivary glands / Tissue uptake: Spleen / Tissue uptake: Stomach: non-tumor-bearing mice
# [1] = 24 h p.i., estimated ratios (organ <0.5% ID/g)
# [2] = 96 h p.i., estimated ratios (organ <0.5% ID/g)
smiles,measurement,setting,value
[Cl][Lu]([Cl])[Cl] [[^175Lu]LuCl3],Organ ratios: Blood-to-bone,1 h p.i.,0.38 ± 0.23
same,Organ ratios: Blood-to-liver,1 h p.i.,0.61 ± 0.35
same,Organ ratios: Liver-to-bone,1 h p.i.,0.64 ± 0.13
same,Tissue uptake: Blood,1 h p.i.,6.4 ± 2.7 % ID/g
same,Tissue uptake: Bone,1 h p.i.,18 ± 3 % ID/g
same,Tissue uptake: Brain,1 h p.i.,<0.5 % ID/g
same,Tissue uptake: Heart,1 h p.i.,3.6 ± 1.5 % ID/g
same,Tissue uptake: Intestines,1 h p.i.,3.2 ± 1.1 % ID/g
same,Tissue uptake: Kidneys,1 h p.i.,7.3 ± 1.7 % ID/g
same,Tissue uptake: Liver,1 h p.i.,11 ± 3 % ID/g
same,Tissue uptake: Lung,1 h p.i.,5.6 ± 2.2 % ID/g
same,Tissue uptake: Muscle,1 h p.i.,1.5 ± 0.6 % ID/g
same,Tissue uptake: Pancreas,1 h p.i.,2.6 ± 0.8 % ID/g
same,Tissue uptake: Salivary glands,1 h p.i.,2.6 ± 0.9 % ID/g
same,Tissue uptake: Spleen,1 h p.i.,3.8 ± 0.5 % ID/g
same,Tissue uptake: Stomach,1 h p.i.,5.8 ± 2.1 % ID/g
same,Organ ratios: Liver-to-bone,24 h p.i.,0.49 ± 0.19
same,Organ ratios: Blood-to-bone,[1],<0.02^*
same,Organ ratios: Blood-to-liver,[1],<0.05^*
same,Tissue uptake: Blood,24 h p.i.,<0.5 % ID/g
same,Tissue uptake: Bone,24 h p.i.,25 ± 5 % ID/g
same,Tissue uptake: Brain,24 h p.i.,<0.5 % ID/g
same,Tissue uptake: Heart,24 h p.i.,0.54 ± 0.06 % ID/g
same,Tissue uptake: Intestines,24 h p.i.,0.61 ± 0.02 % ID/g
same,Tissue uptake: Kidneys,24 h p.i.,3.7 ± 1.0 % ID/g
same,Tissue uptake: Lung,24 h p.i.,0.88 ± 0.13 % ID/g
same,Tissue uptake: Muscle,24 h p.i.,<0.5 % ID/g
same,Tissue uptake: Pancreas,24 h p.i.,<0.5 % ID/g
same,Tissue uptake: Salivary glands,24 h p.i.,0.55 ± 0.17 % ID/g
same,Tissue uptake: Spleen,24 h p.i.,3.5 ± 0.9 % ID/g
same,Tissue uptake: Stomach,24 h p.i.,1.8 ± 0.3 % ID/g
same,Tissue uptake: Liver,"24 h p.i., listed as lutetium",12 ± 3 % ID/g
same,Tissue uptake: Liver,"24 h p.i., listed as natLu",~ 12 % ID/g
same,Organ ratios: Liver-to-bone,96 h p.i.,0.14 ± 0.04
same,Organ ratios: Blood-to-bone,[2],<0.01^*
same,Organ ratios: Blood-to-liver,[2],<0.11^*
same,Tissue uptake: Blood,96 h p.i.,<0.5 % ID/g
same,Tissue uptake: Bone,96 h p.i.,35 ± 4 % ID/g
same,Tissue uptake: Brain,96 h p.i.,<0.5 % ID/g
same,Tissue uptake: Heart,96 h p.i.,0.89 ± 0.25 % ID/g
same,Tissue uptake: Intestines,96 h p.i.,0.54 ± 0.14 % ID/g
same,Tissue uptake: Kidneys,96 h p.i.,2.7 ± 0.2 % ID/g
same,Tissue uptake: Liver,96 h p.i.,4.8 ± 0.9 % ID/g
same,Tissue uptake: Lung,96 h p.i.,1.1 ± 0.2 % ID/g
same,Tissue uptake: Muscle,96 h p.i.,<0.5 % ID/g
same,Tissue uptake: Pancreas,96 h p.i.,<0.5 % ID/g
same,Tissue uptake: Salivary glands,96 h p.i.,0.50 ± 0.06 % ID/g
same,Tissue uptake: Spleen,96 h p.i.,2.3 ± 0.2 % ID/g
same,Tissue uptake: Stomach,96 h p.i.,2.5 ± 0.2 % ID/g
